Laboratory results published in ChEMBL document CHEMBL1201862, “PubChem BioAssay data set” (2004).
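Step 1: Grow cells in 96-well plates. Step 2: Expose to compound for 48 hours at 5 concentrations. Step 3: Interpolate endpoints linearly; if unreached, use highest concentration. Abbreviation: GI50, concentration required for 50% inhibition of growth.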 Calls of active or inactive are those of the source. No stated cut-off is given here; in the data, active = GI50 up to about 1.1 µM and inactive = higher.

Experiments:
Assay in all cases: NCI anticancer screen, dose series, 48 h
[1] = system: A498
[2] = system: CAKI-1
[3] = system: CCRF-CEM
[4] = system: DU-145
[5] = system: HCC 2998
[6] = system: HCT-116
[7] = system: HCT-15
[8] = system: HT-29
[9] = system: IGROV-1
[10] = system: K562
[11] = system: MCF7
[12] = system: MOLT-4
[13] = system: NCI-H522
[14] = system: OVCAR-3
[15] = system: SF-295
[16] = system: SK-MEL-2
[17] = system: SN12C
[18] = system: SNB-75
[19] = system: TK-10
[20] = system: UACC-257

SMILES	GI50 [1]	GI50 [2]	GI50 [3]	GI50 [4]	GI50 [5]	GI50 [6]	GI50 [7] [µM]	GI50 [8]	GI50 [9]	GI50 [10]	GI50 [11]	GI50 [12]	GI50 [13]	GI50 [14]	GI50 [15]	GI50 [16]	GI50 [17]	GI50 [18]	GI50 [19]	GI50 [20]
COc1cccc(C2c3cc4c(cc3OC(C)(N3CCCC3)C2C)OCO4)c1O (stereo not given)	6.4 µM (inactive)	5.83 µM (inactive)	9.06 µM (inactive)	3.52 µM (inactive)	8.09 µM (inactive)	4.25 µM (inactive)	3.6	2.36 µM (inactive)	6.01 µM (inactive)	3.45 µM (inactive)	3.47 µM (inactive)	6.64 µM (inactive)	2.05 µM (inactive)	2.05 µM (inactive)	4.9 µM (inactive)	4.98 µM (inactive)	6.58 µM (inactive)	2.3 µM (inactive)	5.4 µM (inactive)	5.05 µM (inactive)
COc1cc2c(/C=C3/C(=O)N(C)c4ccc(O)cc43)c(Cl)[nH]c2cc1C	2.06 µM (inactive)	0.394 µM (active)	0.284 µM (active)	0.655 µM (active)	0.373 µM (active)	0.361 µM (active)	0.426	0.401 µM (active)	0.733 µM (active)	0.124 µM (active)	0.502 µM (active)	0.209 µM (active)	0.404 µM (active)	0.246 µM (active)	0.262 µM (active)	0.641 µM (active)	0.776 µM (active)	0.439 µM (active)	2.81 µM (inactive)	2.25 µM (inactive)
O=C(N/N=C\c1cccc2c([N+](=O)[O-])cccc12)Nc1ccccc1	16.5 µM (inactive)	12.5 µM (inactive)	10.5 µM (inactive)	26.9 µM (inactive)	15.1 µM (inactive)	5.37 µM (inactive)	11.2	14.8 µM (inactive)	19 µM (inactive)	5.85 µM (inactive)	8.83 µM (inactive)	13.4 µM (inactive)	14.6 µM (inactive)	14.2 µM (inactive)	13.9 µM (inactive)	2.27 µM (inactive)	4.59 µM (inactive)	22.3 µM (inactive)	11.7 µM (inactive)	19.5 µM (inactive)
Cc1cccc2c(=O)c3c(O)cc(O)cc3n(C)c12	7.29 µM (inactive)	> 100 µM (inactive)	> 100 µM (inactive)	> 100 µM (inactive)	> 100 µM (inactive)	> 100 µM (inactive)	> 100	> 100 µM (inactive)	> 100 µM (inactive)	63.5 µM (inactive)	> 100 µM (inactive)	> 100 µM (inactive)	> 100 µM (inactive)	> 100 µM (inactive)	> 100 µM (inactive)	> 100 µM (inactive)	> 100 µM (inactive)	85.7 µM (inactive)	> 100 µM (inactive)	> 100 µM (inactive)
Cc1cc(O)ccc1C1(c2ccc(F)cc2)OC(=O)c2ccccc21 (stereo not given)	13.6 µM (inactive)	3.78 µM (inactive)	28.3 µM (inactive)	4.61 µM (inactive)	4.33 µM (inactive)	3.21 µM (inactive)	3.18	5.09 µM (inactive)	2.21 µM (inactive)	6.87 µM (inactive)	1.34 µM (inactive)	15.5 µM (inactive)	0.646 µM (active)	0.236 µM (active)	3.48 µM (inactive)	3.93 µM (inactive)	0.485 µM (active)	1.93 µM (inactive)	4.01 µM (inactive)	12.6 µM (inactive)
CN(C)CCNC1=Nc2ccccc2C(=O)N2CSCC12 (stereo not given)	> 100 µM (inactive)	> 100 µM (inactive)	> 100 µM (inactive)	> 100 µM (inactive)	> 100 µM (inactive)	> 100 µM (inactive)	> 100	> 100 µM (inactive)	> 100 µM (inactive)	> 100 µM (inactive)	> 100 µM (inactive)	> 100 µM (inactive)	> 100 µM (inactive)	> 100 µM (inactive)	> 100 µM (inactive)	> 100 µM (inactive)	> 100 µM (inactive)	> 100 µM (inactive)	> 100 µM (inactive)	> 100 µM (inactive)
CC(C)(C)OC(=O)NC(Cc1ccccc1)C(=O)OCN1C(=O)C2C3C=CC(C2C1=O)C1C2C(=O)N(COC(=O)C(Cc4ccccc4)NC(=O)OC(C)(C)C)C(=O)C2C31 (stereo not given)	25.9 µM (inactive)	27.5 µM (inactive)	2.67 µM (inactive)	41.6 µM (inactive)	40 µM (inactive)	19.2 µM (inactive)	43.2	12.9 µM (inactive)	30.4 µM (inactive)	23.1 µM (inactive)	13.4 µM (inactive)	10 µM (inactive)	23.7 µM (inactive)	63.1 µM (inactive)	34.4 µM (inactive)	29.8 µM (inactive)	25.5 µM (inactive)	19 µM (inactive)	31 µM (inactive)	> 56.4 µM (inactive)
O=[N+]([O-])c1ccc(C2NC(=S)NC3c4cc([N+](=O)[O-])ccc4CCCC23)cc1 (stereo not given)	76.7 µM (inactive)	> 100 µM (inactive)	39.4 µM (inactive)	33 µM (inactive)	> 100 µM (inactive)	> 100 µM (inactive)	> 100	> 100 µM (inactive)	36.9 µM (inactive)	> 100 µM (inactive)	41.8 µM (inactive)	> 100 µM (inactive)	69.7 µM (inactive)	40.7 µM (inactive)	46.6 µM (inactive)	> 100 µM (inactive)	> 100 µM (inactive)	16.6 µM (inactive)	> 100 µM (inactive)	> 100 µM (inactive)
COc1cnnc2c(C)c(-c3ccccc3)nn12	29.2 µM (inactive)	57 µM (inactive)	> 73.1 µM (inactive)	24.3 µM (inactive)	> 100 µM (inactive)	77.1 µM (inactive)	> 100	> 100 µM (inactive)	38.4 µM (inactive)	> 100 µM (inactive)	> 100 µM (inactive)	> 83.6 µM (inactive)	> 93.5 µM (inactive)	59.2 µM (inactive)	> 78.7 µM (inactive)	40.4 µM (inactive)	30.1 µM (inactive)	20 µM (inactive)	> 100 µM (inactive)	> 90.8 µM (inactive)
CC(C)(C)OC(=O)N[C@H]1CC2(C=C(Cl)C(=O)C(Cl)=C2)OC1=O	4.18 µM (inactive)	13.5 µM (inactive)	1.38 µM (inactive)	27.9 µM (inactive)	16.6 µM (inactive)	14.8 µM (inactive)	14.2	11.5 µM (inactive)	18.7 µM (inactive)	2.46 µM (inactive)	6.79 µM (inactive)	2.48 µM (inactive)	3.07 µM (inactive)	14.8 µM (inactive)	21.9 µM (inactive)	19.1 µM (inactive)	18.5 µM (inactive)	20.5 µM (inactive)	17.5 µM (inactive)	13.8 µM (inactive)
O=S(=O)(O)c1ccc2cc(/N=N/c3c(O)ccc4ccccc34)ccc2c1	> 100 µM (inactive)	> 100 µM (inactive)	> 100 µM (inactive)	> 100 µM (inactive)	> 100 µM (inactive)	> 100 µM (inactive)	> 100	> 100 µM (inactive)	> 100 µM (inactive)	> 100 µM (inactive)	> 100 µM (inactive)	> 100 µM (inactive)	> 100 µM (inactive)	> 100 µM (inactive)	> 100 µM (inactive)	> 100 µM (inactive)	> 100 µM (inactive)	> 100 µM (inactive)	> 100 µM (inactive)	> 100 µM (inactive)
CC[C@H](C)[C@H]1NC(=O)[C@@H](NC(=O)[C@@H](CC(C)C)N(C)C(=O)C2CCCN2C(=O)[C@H](C)O)[C@@H](C)OC(=O)[C@@H]2Cc3ccccc3CN2C(=O)[C@@H]2CCCN2C(=O)[C@H](CC(C)C)NC(=O)[C@@H](C)C(=O)[C@H](C(C)C)OC(=O)C[C@@H]1O (stereo not given in full)	0.871 µM (active)	4.92 µM (inactive)	0.106 µM (active)	0.341 µM (active)	0.154 µM (active)	0.144 µM (active)	> 47.2	0.258 µM (active)	0.476 µM (active)	0.175 µM (active)	0.0596 µM (active)	0.17 µM (active)	0.443 µM (active)	0.286 µM (active)	1.06 µM (active)	0.205 µM (active)	0.271 µM (active)	0.121 µM (active)	2.62 µM (inactive)	0.351 µM (active)
